# Data from US9637473B2, “Acrylamide derivatives as antimalarial agents” (priority 2013, dated 2017).
# Where a name gives a salt, the structure may show the parent alone.
# Tested on: P. Falciparum NF54
# Assay: Plasmodium falciparum in vitro assay ([3H]-hypoxanthine incorporation)
# Assay type: cell-based
# Conditions: P. Falciparum NF54, erythrocytic stages in human red blood cells, 50% human serum
# Method in brief: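 This in vitro antimalarial assay used P. falciparum erythrocytic stages cultured in human erythrocytes and measured [3H]-hypoxanthine incorporation. Radioactivity on the dried filters, placed in plastic foil with 10 mL scintillation fluid, was counted in a Betaplate liquid scintillation counter. Sigmoidal inhibition curves built in Microsoft Excel gave the IC50.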
row,Compound,IC50
1,"CC(C)CCN1C[C@H]2CC(N(Cc3ccc(N(C)c4ccncc4)cc3)C(=O)/C=C/c3ccc(C(F)(F)F)cc3)C[C@H]2C1 (single isomer, unassigned) [Example 68]",17 nM

# Same assay, conditions: Plasmodium falciparum, Erythrocyte, P. Falciparum NF54, erythrocytic stages in human red blood cells, 50% human serum
row,IC50,Compound
1,69 nM,"CN1CCC(N2CCC(N(Cc3ccc(N(C)c4ccncc4)cc3)C(=O)/C=C/c3ccccc3)CC2)CC1 [Example 182, (E)-N-(1′-Methyl-[1,4′]bipiperidinyl-4-yl)-N-[4-(methyl-pyridin-4-yl-amino)-benzyl]-3-phenyl-acrylamide]"
2,46 nM,"Cc1cc(Nc2ccc(CN(C(=O)/C=C/c3ccc(OC(F)(F)F)cc3)C3CCN(C4CCN(C)CC4)CC3)cc2)ccn1 [Example 119, (E)-N-(1′-Methyl-[1,4′]bipiperidinyl-4-yl)-N-[4-(2-methyl-pyridin-4-ylamino)-benzyl]-3-(4-trifluoromethoxy-phenyl)-acrylamide]"
3,178 nM,"Cc1cc(Nc2ccc(CN(CC3CCN(C4CCN(C)CC4)CC3)C(=O)/C=C/c3ccc(C(F)(F)F)cc3)cc2)ccn1 [Example 172, (E)-N-(1′-Methyl-[1,4′]bipiperidinyl-4-ylmethyl)-N-[4-(2-methyl-pyridin-4-ylamino)-benzyl]-3-(4-trifluoromethyl-phenyl)-acrylamide]"
4,90 nM,"Cc1cc(Nc2ccc(CN(C(=O)/C=C/c3ccc(C(F)(F)F)cc3)[C@H]3CCCN(C(C)C)C3)cn2)ccn1 [Example 120, (E)-N-((S)-1-Isopropyl-piperidin-3-yl)-N-[6-(2-methyl-pyridin-4-ylamino)-pyridin-3-ylmethyl]-3-(4-trifluoromethyl-phenyl)-acrylamide]"
5,167 nM,"CN(c1ccncc1)c1ccc(CN(C(=O)/C=C/c2ccc(C(F)(F)F)cc2)C2CCCCN(C3CCCC3)C2)cc1 (racemic) [Example 71, (±)-(E)-N-(1-cyclopentylazepan-3-yl)-N-(4-(methyl(pyridin-4-yl)amino)benzyl)-3-(4-(trifluoromethyl)phenyl)acrylamide]"
6,355 nM,"Cc1cc(Nc2ccc(CN(CCCN3CCOCC3)C(=O)/C=C/c3ccc(C(F)(F)F)cc3)cc2)ccn1 [Example 173, (E)-N-[4-(2-Methyl-pyridin-4-ylamino)-benzyl]-N-(3-morpholin-4-yl-propyl)-3-(4-trifluoromethyl-phenyl)-acrylamide]"
7,174 nM,"Cc1cc(Nc2ccc(CN(C(=O)/C=C/c3ccc(Cl)cc3)C3CCN(C4CC4)CC3)cc2)ccn1 [Example 210, (E)-3-(4-Chloro-phenyl)-N-(1-cyclopropyl-piperidin-4-yl)-N-[4-(2-methyl-pyridin-4-ylamino)-benzyl]-acrylamide]"
8,42 nM,"CN1CCC(N2CC3(CC(N(Cc4ccc(N(C)c5ccncc5)cc4)C(=O)/C=C/c4ccc(C(F)(F)F)cc4)C3)C2)CC1 [Example 73, (E)-N-(4-(methyl(pyridin-4-yl)amino)benzyl)-N-(2-(1-methylpiperidin-4-yl)-2-azaspiro[3.3]heptan-6-yl)-3-(4-(trifluoromethyl)phenyl)acrylamide]"
9,82 nM,"CC(C)N1CCC(N(Cc2cncc(Nc3ccncc3)c2)C(=O)/C=C/c2ccc(C(F)(F)F)cc2)CC1 [Example 141, (E)-N-(1-Isopropyl-piperidin-4-yl)-N-[5-(pyridin-4-ylamino)-pyridin-3-ylmethyl]-3-(4-trifluoromethyl-phenyl)-acrylamide formate]"
10,41 nM,"CN(c1ccncc1)c1ccc(CN(C(=O)/C=C/c2ccc(C(F)(F)F)cc2)C2CCN(Cc3ccn4ccnc4c3)CC2)cc1 [Example 25, (E)-N-(1-Imidazo[1,2-a]pyridin-7-ylmethyl-piperidin-4-yl)-N-[4-(methyl-pyridin-4-yl-amino)-benzyl]-3-(4-trifluoromethyl-phenyl)-acrylamide]"
11,61 nM,"CCCOc1ccc(/C=C/C(=O)N(Cc2ccc(N(C)c3ccncc3)cc2)C2CCN(Cc3ccccc3)CC2)cc1 [Example 148, (E)-N-(1-Benzyl-piperidin-4-yl)-N-[4-(methyl-pyridin-4-yl-amino)-benzyl]-3-(4-propoxy-phenyl)-acrylamide]"
12,60 nM,"CN(c1ccncc1)c1ccc(CN(C(=O)/C=C/c2ccc(C(F)(F)F)cc2)C2CCN(C3CCCC3)CC2)cn1 [Example 104, (E)-N-(1-Cyclopentyl-piperidin-4-yl)-N-[6-(methyl-pyridin-4-yl-amino)-pyridin-3-ylmethyl]-3-(4-trifluoromethyl-phenyl)-acrylamide]"
13,67 nM,"Cc1cc(Nc2ccc(CN(C(=O)/C=C/c3ccc(C(F)(F)F)cc3)C3CCN(C4CCCC4)CC3)nc2)ccn1 [Example 170, (E)-N-(1-Cyclopentyl-piperidin-4-yl)-N-[5-(2-methyl-pyridin-4-ylamino)-pyridin-2-ylmethyl]-3-(4-trifluoromethyl-phenyl)-acrylamide]"
14,180 nM,"CN(c1ccncc1)c1ccc(CN(C(=O)/C=C/c2ccc(C(F)(F)F)cc2)C2CCN(Cc3ccnn3C)CC2)cc1 [Example 17, (E)-N-[1-(2-Methyl-2H-pyrazol-3-ylmethyl)-piperidin-4-yl]-N-[4-(methyl-pyridin-4-yl-amino)-benzyl]-3-(4-trifluoromethyl-phenyl)-acrylamide]"
15,81 nM,"CN(c1ccncc1)c1ccc(CN(C(=O)/C=C/c2ccc(C(F)(F)F)cc2)C2CN(C3CCCC3)C2)cc1 [Example 102, (E)-N-(1-Cyclopentyl-azetidin-3-yl)-N-[4-(methyl-pyridin-4-yl-amino)-benzyl]-3-(4-trifluoromethyl-phenyl)-acrylamide]"
16,152 nM,"CN1CCC(Nc2ccc(CN(C(=O)/C=C/c3ccc(C(F)(F)F)cc3)C3CCN(C4CCCC4)CC3)cn2)CC1 [Example 105, (E)-N-(1-Cyclopentyl-piperidin-4-yl)-N-[6-(1-methyl-piperidin-4-ylamino)-pyridin-3-ylmethyl]-3-(4-trifluoromethyl-phenyl)-acrylamide]"
17,165 nM,"Cc1cc(Nc2ccc(CN(C(=O)/C=C/c3ccc(C(F)(F)F)cc3)C3CCN(Cc4ncc5ccccn45)CC3)cc2)ccn1 [Example 46, (E)-N-(1-Imidazo[1,5-a]pyridin-3-ylmethyl-piperidin-4-yl)-N-[4-(2-methyl-pyridin-4-ylamino)-benzyl]-3-(4-trifluoromethyl-phenyl)-acrylamide]"
18,110 nM,"Cc1cc(Nc2ccc(CN(CCCN(C)C)C(=O)/C=C/c3ccc(Cl)cc3)cc2)ccn1 [Example 167, (E)-3-(4-Chloro-phenyl)-N-(3-dimethylamino-propyl)-N-[4-(2-methyl-pyridin-4-ylamino)-benzyl]-acrylamide]"
19,20 nM,"CN1CCC(N2CCCCC(N(Cc3ccc(N(C)c4ccncc4)cc3)C(=O)/C=C/c3ccc(C(F)(F)F)cc3)C2)CC1 (racemic) [Example 70, (±)-(E)-N-(4-(methyl(pyridin-4-yl)amino)benzyl)-N-(1-(1-methylpiperidin-4-yl)azepan-3-yl)-3-(4-(trifluoromethyl)phenyl)acrylamide]"

row,Compound,IC50
1,"Cc1cc(Nc2ccc(CN(C(=O)/C=C/c3ccc(C(F)(F)F)cc3)C3CCN(Cc4nccs4)CC3)cc2)ccn1 [Example 40, (E)-N-[4-(2-Methyl-pyridin-4-ylamino)-benzyl]-N-(1-thiazol-2-ylmethyl-piperidin-4-yl)-3-(4-trifluoromethyl-phenyl)-acrylamide]",341 nM
2,"CN(c1ccncc1)c1ccc(CN(C(=O)/C=C/c2ccccc2F)C2CCN(Cc3ccccc3)CC2)cc1 [Example 157, (E)-N-(1-Benzyl-piperidin-4-yl)-3-(2-fluoro-phenyl)-N-[4-(methyl-pyridin-4-yl-amino)-benzyl]-acrylamide]",190 nM
